Each structure is given as a SMILES string.

For assay [1], the target named is T1, C3aR (Rattus norvegicus, UniProt O55197).
T1 construct: characterize for the first time a C3aR-induced innate immune response in vivo in rats; from tissue; host or cells: live male Wistar rats, hind paw
T1 sequence (O55197 1-473): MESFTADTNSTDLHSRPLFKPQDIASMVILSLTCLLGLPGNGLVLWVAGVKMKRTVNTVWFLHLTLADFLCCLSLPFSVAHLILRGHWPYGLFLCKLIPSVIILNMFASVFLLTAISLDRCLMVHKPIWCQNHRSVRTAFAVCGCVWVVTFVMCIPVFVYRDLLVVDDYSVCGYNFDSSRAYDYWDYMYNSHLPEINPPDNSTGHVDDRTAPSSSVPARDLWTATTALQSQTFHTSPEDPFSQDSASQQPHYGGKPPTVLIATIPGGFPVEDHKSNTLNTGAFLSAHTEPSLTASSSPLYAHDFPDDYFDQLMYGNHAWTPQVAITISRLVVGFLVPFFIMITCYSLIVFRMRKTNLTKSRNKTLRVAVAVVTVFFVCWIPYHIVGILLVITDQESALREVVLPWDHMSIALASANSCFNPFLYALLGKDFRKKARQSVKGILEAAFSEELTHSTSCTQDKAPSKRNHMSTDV
As to the kind of experiment: Antagonism of BR103-induced rat paw edema by oral C3aR antagonist. The assay is classed as in vivo. As for the experimental part: Male Wistar rats (8–9 weeks) were injected with BR103 (3, 350 μg in 100 μL isotonic saline) into the plantar surface of both hind paw pads using a 30G needle. The inhibitor cromolyn (20 mg/kg in 5% DMSO) was injected subcutaneously 30 min before the agonist. The antagonist BR111 (6, 5–20 mg/kg in olive oil) was administered orally as a single dose 2 h before the agonist. Paw thickness and width were measured using digital calipers (WPI) at 0, 0.5, 2, 6 and 24 h after agonist BR103 administration. Hind paw size is expressed as % change in area from baseline after 0.5 h and then normalized against maximum swelling induced by agonist alone. Researchers were not blinded to treatments given.
Rat paw tissue was collected and fixed in 4% paraformaldehyde (pH 7.4) for 2 h in the cold room (4 °C). The rat paw tissue was then transferred into falcon tubes containing 30% sucrose solution in PBS and left overnight in the cold room. The next day, rat paw tissue was embedded with the Optimal Cutting Temperature compound (OCT, Sakura Finetek, USA) and stored in the −80 °C freezer before being used for making cryo-sections for histological analysis. Frozen sections of 5 microns were prepared using a cryostat-microtome (Leica Biosystems, Germany) and stained using standard protocols on the same day. In normal histological staining, such as with alcian blue and safranin O and hematoxylin and eosin (H&E), samples were briefly washed with distilled water before staining. In alcian blue and safranin O, samples were stained with 0.1% alcian blue (Sigma-Aldrich, USA) and 0.5% safranin O (Sigma-Aldrich, USA) before being mounted in mounting medium. In H&E, samples were stained with hematoxylin (Sigma-Aldrich, USA) and 0.1% eosin (Sigma-Aldrich, USA) before being mounted in mounting medium. In immunohistochemistry, samples were briefly rinsed with PBS to remove OCT and incubated with blocking medium (PBS, 0.1% triton X-100, 10% horse serum) for 1 h at room temperature. Samples were incubated with primary antibody medium (PBS, 4% horse serum, 1:200 histamine or 1:200 of tryptase or 1:150 ED1 or 1:200 ED2 antibodies) overnight at 4 °C. The next day, samples were washed with PBS and were incubated with the secondary antibody medium (PBS, 4% horse serum, detection antibody 1:1000) for 1 h at room temperature. The samples were briefly rinsed, dried and counterstained with DAPI (Invitrogen, Australia). Primary antibodies for histamine (Sigma-Aldrich, USA, H2403, monoclonal rabbit anti-rat IgG, 1: 200), tryptase (Abcam, Australia, ab2378, monoclonal mouse anti-rat IgG, 1:200), ED1 (Serotec, UK, MCA341R, monoclonal mouse anti-rat, 1:150), ED2 (Serotec, UK, MCA3424R, monoclonal mouse anti-rat, 1:200) were purchased from commercial sources. Secondary detection antibody was purchased from (Invitrogen, Australia). ED1 & ED2 positive cells were quantified using FIJI/ImageJ 1.42q software, U.S. National Institutes of Health, Bethesda, MD, USA[44]. All microscope images were obtained using an Olympus BX-51 upright microscope with Olympus DP-71 12Mp colour camera, utilizing DP Capture and DP Manager software packages (Olympus, Tokyo, Japan). Researchers who performed histological analysis and scoring were blinded to the sample identity.
Rat paw tissues were collected and immediately frozen with liquid nitrogen. The frozen rat paw tissue samples were weighed and crushed into smaller pieces with a mortar and pestle in liquid nitrogen. […]

Assay [2] concerns the target T2, C3aR (Homo sapiens, UniProt Q16581).
T2 sequence (Q16581 1-482): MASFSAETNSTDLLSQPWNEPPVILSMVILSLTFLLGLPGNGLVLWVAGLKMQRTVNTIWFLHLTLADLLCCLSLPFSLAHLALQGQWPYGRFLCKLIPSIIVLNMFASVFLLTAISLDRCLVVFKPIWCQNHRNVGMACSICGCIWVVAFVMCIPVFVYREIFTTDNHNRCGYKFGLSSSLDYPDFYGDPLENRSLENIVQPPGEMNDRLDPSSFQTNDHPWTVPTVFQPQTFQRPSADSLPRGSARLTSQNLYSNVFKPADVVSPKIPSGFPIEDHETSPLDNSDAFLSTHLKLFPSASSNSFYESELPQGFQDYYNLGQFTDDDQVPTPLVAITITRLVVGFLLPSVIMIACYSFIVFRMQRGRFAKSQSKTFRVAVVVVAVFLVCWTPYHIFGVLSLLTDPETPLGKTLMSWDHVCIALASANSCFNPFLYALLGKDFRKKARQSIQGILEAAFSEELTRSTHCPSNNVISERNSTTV
Put plainly: Antagonism of agonist 3-induced iCa2+ release in HMDMs (Schild analysis). On the set-up: Concentration-dependent Ca^2+ release in human monocyte-derived macrophages (HMDMs); endogenous in cells; host or cells: primary human monocyte-derived macrophages (HMDMs). The assay is classed as cell-based. On the procedure:
HMDMs were seeded to a 96-well clear-bottom black-wall assay plate at a density of 5 × 10^4 cells per well and allowed to adhere overnight. Prior to assay, cells were incubated with dye-loading buffer (Hank’s balance salt solution (HBSS) buffer, 4 μM Fluo-3 AM, 25 μl Pluronic acid F-127 and 1% fetal bovine serum) for 1 h at 37 °C. Cells were then washed once with assay buffer (HBSS supplemented with 2.5 mM probenecid and 20 mM HEPES, pH 7.4). Intracellular calcium release was monitored using a fluorescence imaging plate reader (excitation 495 nm, emission 520 nm). The percentage responses were plotted against logarithmic concentrations of each test compound[42].

For the compound `N=C(N)NCCCC(NC(=O)c1ccc(C(c2ccccc2)c2ccccc2)s1)C(=O)O` (stereo not shown) [Compound 6], at C3aR [1] (20 mg/kg p.o., 2 h prior, 0.5 h), the “Effect on BR103-induced infiltration of ED1 macrophages” value is on record as “prevented the increased infiltration of inflammatory ED1 macrophages”. In addition, the “Effect on BR103-induced proinflammatory cytokine and chemokine gene expression” value at C3aR [1] (20 mg/kg p.o., 2 h prior, 30 min) was “suppression of BR103-induced gene expression of proinflammatory cytokines and chemokines”. Further, the “Effect on BR103-induced mast cell activation and degranulation and histamine secretion” value on C3aR [1] (20 mg/kg p.o., 2 h prior, 0.5 h after agonist) is “attenuated”. Further, the “Effect on BR103-induced neutrophil activation (MPO activity)” value at C3aR [1] (20 mg/kg p.o., 2 h prior, 6 h after BR103) is on record as “attenuated neutrophil activation at 6 h”. Moreover, the “Effect on BR103-induced paw edema” value at C3aR [1] (oral pretreatment 2 h before BR103 350 µg/paw i.pl., 5–20 mg/kg p.o., swelling at 30 min) is “strongly inhibited acute rat paw edema”. On C3aR [2], the “Mode of antagonism of agonist 3-induced Ca2+ release” value is reported as “insurmountable antagonism”. Moreover, the Schild plot slope on C3aR [2] (agonist 3 with 0–1000 nM antagonist 6, pre-treated 30 min, r2 = 0.99) is given as 0.77 ± 0.05.

Values taken from PMC5570900, “Exploiting a novel conformational switch to control innate immunity mediated by complement protein C3a” (Nature Communications, 2017).
